From patent US20110124021A1, “PHOS[…] ACID SYNTHASE AND CANCER” (priority 2007, published 2011)

Experiments:
Type in all cases: cell-based, human
[1] = test system: FAS phosphorylation in PPC-1 cell line; assay: Effect of okadaic acid on FAS phosphorylation in PPC-1 cells (FIG. 7A); conditions: brief treatment with 100 nM okadaic acid; PPC-1 prostate cancer cell line
Description: (§1) The relationship between FAS phosphorylation and cancer was investigated with a panel of the following human immortalized non-transformed cell lines: IMR-90 fetal lung, hPS human prostate and human cancer cell lines: HCT-116 colon, PPC-1 prostate, and SKBr3 breast. FAS enzyme levels (adjusted to total cellular protein) were quantitated by immunoblot and normalized to IMR-90. Both IMR-90 and hPS non-transformed cell lines had relatively low levels of FAS expression compared to the cancer cell lines, which ranged from 4.3 to 22 fold elevations compared to IMR-90 cells. The high level of FAS expression in SKBr3 cells is consistent with the observation that 28% of its cytosolic protein is FAS (Thompson et al., Biochem. Biophys Acta, 662: 125-130 (1981)).
(§2) Because the FAS expression levels in this panel of cells is consistent with observations made in vivo, the possibility of differential FAS phosphorylation in these cells was investigated. […] No immunoreactivity was detected with an anti-phosphotyrosine or an anti-phosphoserine antibody, although additional antibodies and FAS proteins were not tested. Additional human cancer cell lines, such as LnCAP, OVCAR-3, SKOV3 (ovary), RKO (colon), H460, LX7 (lung), CAPAN-1, and PANC-1 (pancreas) can also be assessed for differential FAS phosphorylation as described above. […]

total cellular FAS = assay: Effect of okadaic acid treatment on total cellular FAS (FIG. 7B); conditions: cell line not stated
Description: FIGS. 7A and 7B, illustrates that phosphorylated FAS increases with okadaic acid treatment (part A) while total FAS protein is reduced (part B).
The effect of okadaic acid, a protein phosphatase 2A inhibitor, in FAS phosphorylation was studied.

[2] = test system: FAS phosphorylation in HCT-116 cell line; assay: Effect of okadaic acid on FAS phosphorylation in HCT-116 cells (FIG. 7A); conditions: brief treatment with 100 nM okadaic acid; HCT-116 colon cancer cell line
Description: as §1, §2

Structure (SMILES): C=C1[C@@H](O)[C@@H]2O[C@]3(CC[C@H](/C=C/[C@@H](C)[C@@H]4CC(C)=C[C@@]5(O[C@H](C[C@@](C)(O)C(=O)O)CC[C@H]5O)O4)O3)CC[C@H]2O[C@@H]1[C@@H](O)C[C@H](C)[C@H]1O[C@@]2(CCCCO2)CC[C@H]1C [okadaic acid]
- ratio of phosphorylated FAS to total FAS [1]: increases substantially
- total FAS protein (total cellular FAS): reduced
- ratio of phosphorylated FAS to total FAS [2]: increases substantially
